Data as given in US4311791A, “Automated kinetic determination of lactate dehydrogenase isoenzymes in serum” (priority 1980, dated 1982).

What was measured:
LD from human muscle [1] = details: previously reported, mean ± 2 SD; cited from earlier work
LD from human liver [2] = biological target: T1, LD from human liver (Homo sapiens, UniProt P00338); details: previously reported, mean ± 2 SD; cited from earlier work
T1 construct: Human tissue extracts were prepared by sonic disruption; from tissue; host or cells: human liver, crude extract (sonicated, supernatant of centrifugation)

M-type LD = assay: Kinetic determination of isoenzymes: inhibition of human M-type LD without preincubation; assay type: biochemical; details: 5 mmol pyruvate and 0.13 mmol NADH per liter, phosphate buffer pH 7.0
Method: (§1) Kinetic determination of isoenzymes. LD's are inhibited by their substrate, the H-type LD being inhibited by pyruvate to a greater extent than the M-type LD. This inhibition, related to the formation of an abortive ternary complex, was the basis of the method that has been used to distinguish the heart enzyme from the muscle enzyme after preincubation.
(§2) Conditions for inhibiting the human LD activity without any preincubation were: 5 mmol of pyruvate and 0.13 mmol of NADH per liter of 100 l mmol/liter potassium phosphate buffer, pH 7.0.

LD from human heart [3] = biological target: T2, LD from human heart (Homo sapiens, UniProt P07195); details: previously reported, mean ± 2 SD; cited from earlier work
T2 construct: Human tissue extracts were prepared by sonic disruption; from tissue; host or cells: human heart, crude extract (sonicated, supernatant of centrifugation)

chicken heart LD = chicken heart LD (Gallus gallus, UniProt P00337); assay: Inhibition of chicken heart LD by pyruvate; assay type: biochemical; details: 3.4 mmol/liter pyruvate
Method: (§3) Assay for total LD activity. The measurements were at 340 nm and 25° C. in a Model 240 (Gilford Instrument, Oberlin, Ohio 44074) digital kinetic spectrophotometer when manual determinations were needed to supply data for calibration curves with purified enzymes or with tissue extracts, and for serum assays in the preliminary stages of developing the method. Sera were assayed at 25° C. in a centrifugal analyzer (GEMSAEC; Electronucleonics, Inc., Fairfield, N.J. 07006) after the optimum conditions were known to be suitable for manual determinations. For automated determinations 500 ul of pyruvate reaction mixture and 50 ul of serum (an 11-fold dilution of the serum) were required. Conditions for measuring total LD activity were: 0.34 mmol of pyruvate and 0.13 mmcl of NADH per liter of the phosphate buffer. The molar absorptivity 6.22×10^3 liter mol^-1 cm^-1 for NADH was used in calculating enzyme activity in IUB units.
(§4) Assay conditions. Studies of the pH dependence of the inhibition of chicken heart LD at an initial substrate concentration of 3.4 mmol/liter pyruvate (control rate, 0.1 absorbance unit change per minute at 0.34 mmol/liter pyruvate) indicated the pH for maximum inhibition of LD activity to be pH 7, although pH 6.5 was also suitable for the inhibition. […]

LD from human brain [4] = details: previously reported, mean ± 2 SD; cited from earlier work
LD from human liver [5] = biological target: T1, LD from human liver; assay: Inhibition of LD activity in human liver extract by high pyruvate, without preincubation (present method); assay type: biochemical
Method: (§5) Preparation of tissue. Human tissue extracts were prepared by sonic disruption (at 4° l C. for 1 min.) of 1 g (wet weight) of tissue in 9 ml of potassium phosphate buffer (0.1 mol/liter, pH 7.0). The homogenates were centrifuged at 4° C. at 5×10^4 g for 10 min.; and the superiors were promptly examined for LD activity and stored at -80° C.
as §3
as §1, with “preincubation. […]” for “preincubation.”

LD from human heart [6] = biological target: T2, LD from human heart; assay: Inhibition of LD activity in human heart extract by high pyruvate, without preincubation (present method); assay type: biochemical
Method: as §5, §3
as §1, with “preincubation. […]” for “preincubation.”

LD from human muscle [7] = assay: Inhibition of human muscle LD, present method; assay type: biochemical; details: mean ± 2 SD, at least seven sources
Method: as §5, §3
(§6) Kinetic determination of isoenzymes. […]

LD from human kidney [8] = details: previously reported, mean ± 2 SD; cited from earlier work
LD from human brain [9] = assay: Inhibition of human brain LD, present method; assay type: biochemical; details: mean ± 2 SD, at least seven sources
Method: as §5, §3, §6

LD from human kidney [10] = assay: Inhibition of human kidney LD, present method; assay type: biochemical; details: mean ± 2 SD, at least seven sources
Method: as §5, §3, §6

H-type LD = assay: Kinetic determination of isoenzymes: inhibition of human H-type LD without preincubation; assay type: biochemical; details: 5 mmol pyruvate and 0.13 mmol NADH per liter, phosphate buffer pH 7.0
Method: as §1, §2

LD from human spleen [11] = assay: Inhibition of human spleen LD, present method; assay type: biochemical; details: mean ± 2 SD, at least seven sources
Method: as §5, §3, §6

rabbit muscle LD = assay: Activity/inhibition of crystalline rabbit muscle LD at high pyruvate; assay type: biochemical
Method: as §3, §4

LD from human spleen [12] = details: previously reported, mean ± 2 SD; cited from earlier work
[13] = present method, mean ± 2 SD, at least seven sources

T2 sequence (P07195 2-334): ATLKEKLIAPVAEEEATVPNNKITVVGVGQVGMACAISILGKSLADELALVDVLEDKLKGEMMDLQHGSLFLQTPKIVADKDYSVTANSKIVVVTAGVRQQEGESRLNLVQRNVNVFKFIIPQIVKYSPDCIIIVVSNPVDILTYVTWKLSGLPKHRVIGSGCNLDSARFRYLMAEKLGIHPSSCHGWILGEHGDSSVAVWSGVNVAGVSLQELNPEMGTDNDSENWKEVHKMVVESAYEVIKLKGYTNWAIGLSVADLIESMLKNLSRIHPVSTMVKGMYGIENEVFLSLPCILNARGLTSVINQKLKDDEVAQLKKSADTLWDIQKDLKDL
chicken heart LD, sequence (P00337 whole entry): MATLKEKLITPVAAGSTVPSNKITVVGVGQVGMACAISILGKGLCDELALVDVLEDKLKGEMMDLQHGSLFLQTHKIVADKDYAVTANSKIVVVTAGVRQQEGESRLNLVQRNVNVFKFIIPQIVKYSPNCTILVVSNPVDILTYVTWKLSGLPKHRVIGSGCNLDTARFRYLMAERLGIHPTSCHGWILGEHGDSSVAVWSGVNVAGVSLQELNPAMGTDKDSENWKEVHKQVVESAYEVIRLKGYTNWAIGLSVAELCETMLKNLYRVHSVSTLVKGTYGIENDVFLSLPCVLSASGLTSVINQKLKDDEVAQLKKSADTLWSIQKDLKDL

CC(=O)C(=O)[O-].[Na+] [pyruvate, Sodium pyruvate]
Percent inhibition, Preincubation method, Muscle (LD from human muscle [1]): 17.3 ± 12.2%
Percent inhibition, Preincubation method, Liver (LD from human liver [2]): 18.3 ± 10.0%
inhibition of the M-type LD (M-type LD): slight inhibition
Percent inhibition, Preincubation method, Heart (LD from human heart [3]): 61.1 ± 8.3%
pH for maximum inhibition of LD activity (chicken heart LD): 7
inhibition of chicken heart LD (chicken heart LD; pH 8 and above): no inhibition was seen
Percent inhibition, Preincubation method, Brain (LD from human brain [4]): 59.0 ± 6.6%
Percent inhibition, Liver (LD from human liver [5]; 5 mmol/liter pyruvate, pH 6): 53%
Percent inhibition, Liver (LD from human liver [5]; 5 mmol/liter pyruvate, pH 7): 20%
Percent inhibition, Liver (LD from human liver [5]; 5 mmol/liter pyruvate, pH 8, negative sign = increased rate): -19%
Percent inhibition, Liver (LD from human liver [5]; 10 mmol/liter pyruvate, pH 6): 65%
Percent inhibition, Liver (LD from human liver [5]; 10 mmol/liter pyruvate, pH 7): 50%
Percent inhibition, Liver (LD from human liver [5]; 10 mmol/liter pyruvate, pH 8, negative sign = increased rate): -14%
Percent inhibition, Present method, Liver (LD from human liver [5]; [13]): 17.6 ± 11.8%
Percent inhibition, Heart (LD from human heart [6]; 5 mmol/liter pyruvate, pH 6): 90%
Percent inhibition, Heart (LD from human heart [6]; 5 mmol/liter pyruvate, pH 7): 69%
Percent inhibition, Heart (LD from human heart [6]; 5 mmol/liter pyruvate, pH 8): 40%
Percent inhibition, Heart (LD from human heart [6]; 10 mmol/liter pyruvate, pH 6): 91%
Percent inhibition, Heart (LD from human heart [6]; 10 mmol/liter pyruvate, pH 7): 79%
Percent inhibition, Heart (LD from human heart [6]; 10 mmol/liter pyruvate, pH 8): 50%
Percent inhibition, Present method, Heart (LD from human heart [6]; [13]): 60.8 ± 10.8%
Percent inhibition, Present method, Muscle (LD from human muscle [7]): 16.1 ± 11.8%
Percent inhibition, Preincubation method, Kidney (LD from human kidney [8]): 53.0 ± 15.1%
Percent inhibition, Present method, Brain (LD from human brain [9]): 50.6 ± 8.4%
Percent inhibition, Present method, Kidney (LD from human kidney [10]): 53.1 ± 5.0%
inhibition of the H-type LD (H-type LD): more than 50%
Percent inhibition, Present method, Spleen (LD from human spleen [11]): 43.5 ± 9.0%
reaction rate, % of the maximum velocity (rabbit muscle LD; 3.4 mmol/liter pyruvate): 114%
inhibition of rabbit muscle LD (rabbit muscle LD; 10 mmol/liter pyruvate): 2%
Percent inhibition, Preincubation method, Spleen (LD from human spleen [12]): 41.3 ± 8.5%
